Test results published in the NIST ThermoML archive (doi:10.1016/j.jct.2012.01.008).

Assay: xn = mol fraction of the nth substance listed
Settings: Liquid, Vibrating tube method

CCC[N+]1(C)CCCCC1.O=S(=O)([N-]S(=O)(=O)C(F)(F)F)C(F)(F)F + COc1ccccc1
mass density [kg/m3]
Settings | x2 = 0.1015 | x2 = 0.201 | x2 = 0.3001 | x2 = 0.4102 | x2 = 0.5003 | x2 = 0.6003 | x2 = 0.7003 | x2 = 0.8 | x2 = 0.9
318.15 K, 30000 kPa | 1396.8 | 1379.5 | 1359.2 | 1332.7 | 1306.7 | 1271.8 | 1227.8 | 1171.1 | 1094.8
318.15 K, 35000 kPa | 1399.9 | 1382.6 | 1362.3 | 1335.9 | 1309.9 | 1275 | 1231 | 1174.2 | 1098
318.15 K, 40000 kPa | 1402.8 | 1385.4 | 1365.2 | 1338.8 | 1312.8 | 1277.9 | 1233.9 | 1177.1 | 1100.8
318.15 K, 45000 kPa | 1405.7 | 1388.3 | 1368.1 | 1341.7 | 1315.7 | 1280.8 | 1236.8 | 1180.1 | 1103.7
318.15 K, 50000 kPa | 1408.4 | 1391 | 1370.8 | 1344.5 | 1318.5 | 1283.5 | 1239.5 | 1182.9 | 1106.6
348.15 K, 100 kPa | 1351.4 | 1333.7 | 1313 | 1285.7 | 1259.5 | 1224.1 | 1179.9 | 1122.6 | 1046
348.15 K, 10000 kPa | 1358.7 | 1341.1 | 1320.5 | 1293.4 | 1267.3 | 1232.1 | 1188.1 | 1130.9 | 1054.5
348.15 K, 15000 kPa | 1362.3 | 1344.8 | 1324.2 | 1297.2 | 1271 | 1235.9 | 1191.9 | 1134.8 | 1058.3
348.15 K, 20000 kPa | 1366 | 1348.5 | 1328 | 1301 | 1274.7 | 1239.6 | 1195.6 | 1138.7 | 1062.2
348.15 K, 25000 kPa | 1369.4 | 1352 | 1331.5 | 1304.6 | 1278.4 | 1243.2 | 1199.3 | 1142.5 | 1066
348.15 K, 30000 kPa | 1372.6 | 1355.3 | 1334.8 | 1308 | 1281.8 | 1246.6 | 1202.6 | 1145.9 | 1069.5
348.15 K, 35000 kPa | 1375.9 | 1358.4 | 1338.1 | 1311.3 | 1285.2 | 1250.1 | 1206.1 | 1149.4 | 1073
348.15 K, 40000 kPa | 1378.9 | 1361.5 | 1341.2 | 1314.5 | 1288.4 | 1253.3 | 1209.4 | 1152.8 | 1076.5
348.15 K, 45000 kPa | 1382.1 | 1364.6 | 1344.4 | 1317.7 | 1291.6 | 1256.5 | 1212.7 | 1156 | 1079.7
348.15 K, 50000 kPa | 1384.8 | 1367.5 | 1347.3 | 1320.7 | 1294.6 | 1259.6 | 1215.8 | 1159.2 | 1083
